Experimental data: PubChem BioAssay (NCI)
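In this assay, cells in 96-well plates receive the compound at five concentrations for 48 hours. Endpoints are linearly interpolated between the surrounding concentrations. At the GI50, growth is halved. At the TGI there is no net growth.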

Columns and labels:
Test in all cases: growth of human tumour cells (NCI), 48 h
[1] = test system: HCT-116 colon
[2] = test system: HCT-15 colon
[3] = test system: MDA-MB-231 breast
[4] = test system: NCI-H522 lung
[5] = test system: OVCAR-3 ovarian
[6] = test system: RXF 393 renal
[7] = test system: SF-268 CNS
[8] = test system: SK-MEL-2 melanoma
[9] = test system: T-47D breast
[10] = test system: U251 CNS
[11] = test system: UO-31 renal
[12] = test system: 786-0 renal
[13] = test system: A498 renal
[14] = test system: A549 NSCLC
[15] = test system: ACHN renal
[16] = test system: BT-549 breast
[17] = test system: CAKI-1 renal
[18] = test system: CCRF-CEM leukemia
[19] = test system: COLO 205 colon
[20] = test system: DU-145 prostate
[21] = test system: EKVX NSCLC
[22] = test system: HCC-2998 colon
[23] = test system: HL-60(TB) leukemia
[24] = test system: HOP-62 NSCLC
[25] = test system: HOP-92 NSCLC
[26] = test system: HS 578T breast
[27] = test system: HT29 colon
[28] = test system: IGROV1 ovarian
[29] = test system: K-562 leukemia
[30] = test system: KM12 colon
[31] = test system: LOX IMVI melanoma
[32] = test system: M14 melanoma
[33] = test system: MALME-3M melanoma
[34] = test system: MCF7 breast
[35] = test system: MDA-MB-435
[36] = test system: MOLT-4 leukemia
[37] = test system: NCI-H226 lung
[38] = test system: NCI-H23 lung
[39] = test system: NCI-H460 lung
[40] = test system: NCI/ADR-RES ovarian
[41] = test system: OVCAR-4 ovarian
[42] = test system: OVCAR-5 ovarian
[43] = test system: OVCAR-8 ovarian
[44] = test system: PC-3 prostate
[45] = test system: RPMI-8226 leukemia
[46] = test system: SF-295 CNS
[47] = test system: SF-539 CNS
[48] = test system: SK-MEL-28 melanoma
[49] = test system: SK-MEL-5 melanoma
[50] = test system: SNB-19 CNS
[51] = test system: SNB-75 CNS
[52] = test system: SR leukemia
[53] = test system: SW-620 colon
[54] = test system: TK-10 renal
[55] = test system: UACC-257 melanoma
[56] = test system: UACC-62 melanoma
[57] = test system: SK-OV-3 ovarian
[58] = test system: SN12C renal

O=C(O)c1cc(-c2ccc(-c3ccc(-c4cc(C(=O)O)c5cc(Cl)ccc5n4)cc3)cc2)nc2ccc(Cl)cc12
GI50 [1]: 52.4 µM | GI50 [2]: 67.2 µM | GI50 [3]: 46.5 µM | GI50 [4]: 79.8 µM | GI50 [5]: 48.8 µM | GI50 [6]: 77.9 µM | GI50 [7]: 94.7 µM | GI50 [8]: 56 µM | GI50 [9]: 50.9 µM | GI50 [10]: 40.9 µM | GI50 [11]: 32.5 µM

O=C(O)c1nc2ccccc2nc1Nc1ccc(F)cc1
TGI [12]: > 100 µM | TGI [13]: > 100 µM | TGI [14]: > 100 µM | TGI [15]: > 100 µM | TGI [16]: > 100 µM | TGI [17]: 63.4 µM | TGI [18]: 79.9 µM | TGI [19]: 76.2 µM | TGI [20]: > 100 µM | TGI [21]: > 100 µM | TGI [22]: > 100 µM | TGI [1]: > 100 µM | TGI [2]: 89.8 µM | TGI [23]: 78.8 µM | TGI [24]: > 100 µM | TGI [25]: 85.9 µM | TGI [26]: > 100 µM | TGI [27]: > 100 µM | TGI [28]: > 100 µM | TGI [29]: 94.1 µM | TGI [30]: > 100 µM | TGI [31]: > 100 µM | TGI [32]: > 100 µM | TGI [33]: > 100 µM | TGI [34]: 74.8 µM | TGI [35]: > 100 µM | TGI [36]: > 100 µM | TGI [37]: > 100 µM | TGI [38]: > 100 µM | TGI [39]: > 100 µM | TGI [4]: 82.4 µM | TGI [40]: > 100 µM | TGI [5]: 77.5 µM | TGI [41]: > 100 µM | TGI [42]: > 100 µM | TGI [43]: > 100 µM | TGI [44]: 90.7 µM | TGI [45]: > 100 µM | TGI [6]: 51.8 µM | TGI [7]: 99.2 µM | TGI [46]: 58.5 µM | TGI [47]: 60 µM | TGI [8]: 76.5 µM | TGI [48]: > 100 µM | TGI [49]: 54.2 µM | TGI [50]: > 100 µM | TGI [51]: 81.8 µM | TGI [52]: 91.1 µM | TGI [53]: > 100 µM | TGI [9]: > 100 µM | TGI [54]: > 100 µM | TGI [10]: > 100 µM | TGI [55]: > 100 µM | TGI [56]: 77.6 µM | TGI [11]: > 100 µM

BrCCCc1n(Cc2ccc3ccccc3c2)c2ccccc2[n+]1Cc1ccc2ccccc2c1
GI50 [20]: 1580 nM | TGI [20]: 4.25 µM | GI50 [40]: 8.47 µM | TGI [40]: > 81.3 µM

c1ccc2sc(SCN(C3CCCCC3)C3CCCCC3)nc2c1
TGI [13]: > 100 µM | TGI [14]: > 100 µM | TGI [15]: > 100 µM | TGI [16]: > 100 µM | TGI [17]: > 100 µM | TGI [20]: > 100 µM | TGI [21]: > 100 µM | TGI [22]: > 100 µM | TGI [2]: > 100 µM | TGI [24]: > 100 µM | TGI [25]: > 100 µM | TGI [26]: > 100 µM | TGI [27]: > 100 µM | TGI [28]: > 100 µM | TGI [29]: > 100 µM | TGI [30]: > 100 µM | TGI [31]: > 100 µM | TGI [32]: > 100 µM | TGI [33]: > 100 µM | TGI [3]: > 100 µM | TGI [35]: > 100 µM | TGI [36]: > 100 µM | TGI [37]: > 100 µM | TGI [38]: > 100 µM | TGI [39]: > 100 µM | TGI [4]: > 100 µM | TGI [40]: > 100 µM | TGI [5]: > 100 µM | TGI [41]: > 100 µM | TGI [42]: > 100 µM | TGI [43]: > 100 µM | TGI [44]: > 100 µM | TGI [6]: > 100 µM | TGI [7]: > 100 µM | TGI [46]: > 100 µM | TGI [8]: > 100 µM | TGI [48]: > 100 µM | TGI [49]: > 100 µM | TGI [50]: > 100 µM | TGI [52]: > 100 µM | TGI [53]: > 100 µM | TGI [9]: 49.5 µM | TGI [54]: > 100 µM | TGI [10]: > 100 µM | TGI [55]: > 100 µM | TGI [56]: > 100 µM | TGI [11]: > 100 µM

Cc1ccc(-c2cc3nc(C(Cl)Cl)nc(-c4cccnc4)n3n2)cc1
GI50 [20]: 548 nM | TGI [20]: 3.79 µM | GI50 [27]: 652 nM | TGI [27]: > 100 µM | GI50 [29]: 2010 nM | TGI [29]: > 100 µM | GI50 [34]: 2010 nM | TGI [34]: > 100 µM | GI50 [36]: 1830 nM | TGI [36]: > 100 µM | GI50 [43]: 1480 nM | TGI [43]: > 100 µM | GI50 [52]: 495 nM | TGI [52]: > 100 µM

CCOC(=O)CCC(C(=O)OCC)n1nnc2ccc(Nc3c(C)[n+]([O-])c4cc(Cl)ccc4[n+]3[O-])cc21 (configuration not stated)
TGI [12]: > 100 µM | TGI [14]: > 100 µM | TGI [15]: > 100 µM | TGI [16]: 78.1 µM | TGI [17]: > 100 µM | TGI [18]: > 100 µM | TGI [19]: 35.7 µM | TGI [20]: > 100 µM | TGI [21]: > 100 µM | TGI [22]: 49.7 µM | TGI [1]: > 100 µM | TGI [2]: 58.2 µM | TGI [23]: 83.5 µM | TGI [24]: > 100 µM | TGI [25]: 38.7 µM | TGI [26]: > 100 µM | TGI [27]: 68.9 µM | TGI [28]: 79 µM | TGI [29]: 57.7 µM | TGI [30]: 86.7 µM | TGI [31]: 35.7 µM | TGI [32]: 40.2 µM | TGI [33]: 35.2 µM | TGI [34]: 34.3 µM | TGI [35]: 40.4 µM | TGI [36]: > 100 µM | TGI [37]: 81.5 µM | TGI [38]: 69.4 µM | TGI [39]: > 100 µM | TGI [4]: 47 µM | TGI [40]: > 100 µM | TGI [5]: 34.4 µM | TGI [41]: 39.1 µM | TGI [42]: > 100 µM | TGI [43]: 55.5 µM | TGI [44]: > 100 µM | TGI [45]: 47 µM | TGI [6]: 60.8 µM | TGI [7]: 55.1 µM | TGI [46]: > 100 µM | TGI [47]: 39.9 µM | TGI [8]: 57 µM | TGI [57]: > 100 µM | TGI [58]: 66.9 µM | TGI [50]: > 100 µM | TGI [51]: > 100 µM | TGI [52]: > 100 µM | TGI [9]: 44.3 µM | TGI [54]: > 100 µM | TGI [10]: > 100 µM | TGI [55]: 30.8 µM | TGI [56]: 35.1 µM | TGI [11]: > 100 µM

CC(=O)O[C@H]1CC[C@]2(C)[C@H]3CC=C4[C@@H]5CC(C)(C)CC[C@]5(C(=O)NCCNCCN)CC[C@@]4(C)[C@]3(C)CC[C@H]2C1(C)C
GI50 [15]: 196 nM | TGI [15]: 0.388 µM | GI50 [16]: 1680 nM | TGI [16]: 3.3 µM | GI50 [17]: 1250 nM | TGI [17]: 2.59 µM | GI50 [20]: 1290 nM | TGI [20]: 2.74 µM | GI50 [22]: 624 nM | TGI [22]: 2.12 µM | GI50 [2]: 0.282 µM | TGI [2]: 0.895 µM | GI50 [30]: 1640 nM | TGI [30]: 3.17 µM | GI50 [35]: 1340 nM | TGI [35]: 2.65 µM | GI50 [40]: 1.65 µM | TGI [40]: 3.65 µM | GI50 [42]: 1640 nM | TGI [42]: 3.09 µM | GI50 [43]: 1700 nM | TGI [43]: 4.27 µM | GI50 [44]: 1100 nM | TGI [44]: 2.43 µM | GI50 [45]: 1200 nM | TGI [45]: 3.52 µM | GI50 [46]: 1770 nM | TGI [46]: 3.25 µM | GI50 [47]: 1510 nM | TGI [47]: 2.94 µM | GI50 [48]: 1710 nM | TGI [48]: 3.23 µM | GI50 [58]: 1670 nM | TGI [58]: 3.23 µM | GI50 [51]: 1360 nM | TGI [51]: 2.65 µM | GI50 [11]: 1.28 µM | TGI [11]: 2.76 µM
